From publication PMC11012124, “Synthesis of Novel Triazine-Based Chalcones and 8,9-dihydro-7H-pyrimido[4,5-b][1,4]diazepines as Potential Leads in the Search of Anticancer, Antibacterial and Antifungal Agents” (International Journal of Molecular Sciences, 2024) come the findings set out here.

≈ marks a conversion by molar mass, not a printed value. Like-named read-outs stand apart in the source and are kept apart here.

In data set [1] the test system is SF-539. The following applies: human, 48 h.
Data set [2] relates to LOX IMVI. The following applies: 48 h; for GI50: LOX IMVI.
Data set [3] concerns Microsporum gypseum (CCC 115). Briefly: Antifungal broth microdilution (CLSI). The class given is cell-based. The following applies: Nannizzia gypsea; Mg: Microsporum gypseum. In outline:
(§1)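 Broth microdilution followed CLSI M27-A3 for yeasts and the filamentous-fungi reference method, in 200 μL final volume with DMSO-matched growth controls. Plates were incubated in the dark and humid at 30 °C for a time suited to each fungus; testing was done in triplicate.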
On the technique in general: Dilution methods test growth across graded concentrations, often in twofold steps.

The subject of data set [4] is A. fumigatus (ATCC 26934). Briefly: Antifungal broth microdilution (CLSI). The class given is cell-based. The following applies: ATCC26934; Afu: Aspergillus fumigatus. In outline:
as §1

The subject of data set [5] is MOLT-4. The following applies: MOLT-4, 48 h.
Data set [6] concerns U251. The following applies: U251, 48 h.
The test system of data set [7] is Galleria mellonella. Briefly: Toxicity in the Galleria mellonella model. The following applies: G. mellonella larvae, at the higher doses.
Description: G mellonella larvae were cultivated in the laboratory and healthy, beige larvae weighing 150–200 mg, were selected for toxicity assays.
Data set [8] deals with CCRF-CEM. The following applies: 48 h.
The test system of data set [9] is N. gonorrhoeae ATCC 49226. Briefly: MIC on GC agar plates. The class given is cell-based, Neisseria gonorrhoeae. The protocol: An initial screening for bacterial inhibition was performed by the agar diffusion method. […] DMSO and TSB were included as negative controls. Gentamicin and trimethoprim sulfamethoxazole were included as a positive control for growth inhibition. Derivatives showing growth inhibition were tested at least twice before being selected for the microdilution test. For N. gonorrhoeae, the agar diffusion method was also used for screening with some modifications. […] Penicillin and tetracycline were used as controls. […] Briefly, GC agar supplemented with 1% isovitalex was prepared with increasing concentrations of the new compounds and inoculated with 10 µL of a bacterial suspension (1 × 10^4 CFU). The lowest concentration of the compound that inhibited bacterial growth was determined as the MIC. Bacterial growth was examined and verified using the oxidase test. The experiments were performed in duplicate in at least two independent assays.

In data set [10] the test system is K-562. The following applies: K-562, 48 h.
The subject of data set [11] is SR. The following applies: 48 h.
The subject of data set [12] is human red blood cells (huRBC). Briefly: Hemolytic activity, spectrophotometric. The following applies: 200 μg/mL, 24 h, 37 °C. The class given is cell-based.
Data set [13] relates to S. aureus ATCC 43300. Briefly: Antibacterial MIC, microdilution. The class given is cell-based. The following applies: Staphylococcus aureus; S. aureus ATCC 43300 (MRSA).
Where [14] appears, read: Neisseria gonorrhoeae, ATCC49226, read-out: MIC.

In the case of `COc1cc(/C=C/C(=O)c2ccc(S(=O)(=O)NCCNc3nc(Nc4ccc(F)cc4)nc(N(C)C)n3)cc2)cc(OC)c1OC` [24d], the CC50 was determined as 5620 nM in data set [1] and 5930 nM in data set [2] (human).

What is called MIC is the lowest concentration found to suppress growth. For orientation: GI50 means the concentration that inhibits growth by half. A low value points to greater sensitivity of the cells. By mortality is commonly meant the percentage killed. A high value points to a strong lethal effect. For the molecule `COc1cc(/C=C/C(=O)c2cc(OC)c(OC)c(OC)c2)ccc1Oc1nc(Nc2ccc(F)cc2)nc(N(C)C)n1` [21d], the MIC in data set [3] and in data set [4] was above 250 µg/mL throughout. Besides, the results for the concentration for 50% growth inhibition (GI50) in data set [5], in [6] and in data set [2] were 470 nM, 500 nM and 480 nM, respectively. Further, the mortality in data set [7] is at most 25%.

With `Nc1nc(N)c2c(n1)NC(c1ccc(F)cc1)CC(c1ccc(Nc3nc(NCCO)nc(Nc4ccc(Cl)cc4)n3)cc1)=N2` (stereo not shown) [33f], the GI50 in data set [8] stood at 750 nM; in data set [10], 490 nM; in data set [5], 530 nM; in [11], 670 nM. For the same molecule, the MIC in data set [9] (setting [14]) stood at 1 µg/mL (≈ 1.59 µM).

In the case of `Nc1nc(N)c2c(n1)NC(c1ccccc1)CC(c1ccc(Nc3nc(NCCO)nc(Nc4ccc(Cl)cc4)n3)cc1)=N2` (stereo not shown) [33a], the MIC in data set [9] (setting [14]) is 1 µg/mL (≈ 1.64 µM).

As for `COc1cc(/C=C/C(=O)c2cc(OC)c(OC)c(OC)c2)ccc1Oc1nc(NCCO)nc(N2CCOCC2)n1` [20d], the GI50 in data set [11] was determined as 780 nM; in data set [2] it was 640 nM.

On to `CN(C)c1nc(NCCNS(=O)(=O)c2ccc(C3=Nc4c(N)nc(N)nc4NC(c4ccccc4)C3)cc2)nc(Nc2ccc(F)cc2)n1` (stereo not shown) [31a], for which the MIC in [9] (setting [14]) is 8 µg/mL (≈ 11.7 µM).

Take `COc1cc(/C=C/C(=O)c2ccc(S(=O)(=O)NCCNc3nc(N(C)C)nc(N4CCOCC4)n3)cc2)cc(OC)c1OC` [23d]: the MIC in [9] (setting [14]) was above 500 µg/mL.

With `CN(C)c1nc(NCCNS(=O)(=O)c2ccc(C3=Nc4c(N)nc(N)nc4NC(c4ccc(F)cc4)C3)cc2)nc(Nc2ccc(F)cc2)n1` (stereo not shown) [31f], the minimum inhibitory concentration (MIC) in [9] and in [9] (setting [14]) was 0.25 µg/mL (≈ 0.356 µM) each time.

In turn, `COc1cc(/C=C/C(=O)c2ccccc2)ccc1Oc1nc(Nc2ccc(F)cc2)nc(N(C)C)n1` [21a] displayed a mortality in data set [7] of at most 25%.

Turning to `COc1cc(C2CC(c3ccc(Cl)cc3)=Nc3c(N)nc(N)nc3N2)ccc1Oc1nc(Nc2ccc(F)cc2)nc(N(C)C)n1` (stereo not shown) [29e], the MIC in data set [3] is above 250 µg/mL; in data set [4], above 250 µg/mL; in [9] (setting [14]), at least 500 µg/mL.

As for `Cc1ccc(C2CC(c3ccc(S(=O)(=O)NCCNc4nc(Nc5ccc(F)cc5)nc(N(C)C)n4)cc3)=Nc3c(N)nc(N)nc3N2)cc1` (stereo not shown) [31b], the MIC in data set [9] (setting [14]) is 8 µg/mL (≈ 11.5 µM).

On to `Cc1ccc(C2CC(c3ccc(Nc4nc(NCCO)nc(Nc5ccc(Cl)cc5)n4)cc3)=Nc3c(N)nc(N)nc3N2)cc1` (stereo not shown) [33b], for which the MIC in data set [9] (setting [14]) turned out to be 0.5 µg/mL (≈ 0.802 µM). Also, in [12], the “% Hemolysis” value was 100%.

Regarding `CN(C)c1nc(NCCNS(=O)(=O)c2ccc(C3=Nc4c(N)nc(N)nc4NC(c4ccc(Cl)cc4)C3)cc2)nc(Nc2ccc(F)cc2)n1` (stereo not shown) [31e], the MIC in [9] (setting [14]) worked out at 0.5 µg/mL (≈ 0.696 µM).

Consider `CN(C)c1nc(NCCNS(=O)(=O)c2ccc(C3=Nc4c(N)nc(N)nc4NC(c4ccc(C(F)(F)F)cc4)C3)cc2)nc(N2CCOCC2)n1` (stereo not shown) [30g], for which the MIC in [3] and in data set [4] was above 250 µg/mL each time. Besides, in [7], the mortality is given as at most 25%.

Regarding `CN(C)c1nc(NCCNS(=O)(=O)c2ccc(C(=O)/C=C/c3ccc(Cl)cc3)cc2)nc(N2CCOCC2)n1` [23e], the MIC in data set [3] and in data set [4] was above 250 µg/mL in each case.

As to `COc1ccc(/C=C/C(=O)c2ccc(S(=O)(=O)NCCNc3nc(Nc4ccc(F)cc4)nc(N(C)C)n3)cc2)cc1` [24c], the MIC in data set [3] and in data set [4] was above 250 µg/mL in each case.

On to `CN(C)c1nc(NCCNS(=O)(=O)c2ccc(C(=O)/C=C/c3ccc(Cl)cc3)cc2)nc(Nc2ccc(F)cc2)n1` [24e], for which the results for the MIC in data set [3], in data set [4] and in data set [9] (setting [14]) were above 250 µg/mL, above 250 µg/mL and 500 µg/mL (≈ 839 µM), respectively.

Consider `Nc1nc(N)c2c(n1)NC(c1ccc(C(F)(F)F)cc1)CC(c1ccc(Nc3nc(NCCO)nc(Nc4ccc(Cl)cc4)n3)cc1)=N2` (stereo not shown) [33g], for which the concentration for 50% growth inhibition (GI50) was found to be 640 nM in data set [10] and 890 nM in data set [5]. The same molecule showed an MIC in data set [13] of 31.2 µg/mL (≈ 46.2 µM).

Turning to `CN(C)c1nc(NCCNS(=O)(=O)c2ccc(C3=Nc4c(N)nc(N)nc4NC(c4ccc(C(F)(F)F)cc4)C3)cc2)nc(Nc2ccc(F)cc2)n1` (stereo not shown) [31g], the MIC in [3] is above 250 µg/mL; in [4], 62.5 µg/mL (≈ 83.1 µM).
